Assay results as given in publication PMC2949542 (Analytical biochemistry, 2010).
Read-outs that look alike come from different tables or passages of the source.

How the values were obtained:
[1] = biological target: T1, carbonic anhydrase II (CAII) (Bos taurus, UniProt P00921); conditions: read-out: KD (μM) Biacore (8); benchmark study on Biacore platforms; cited from earlier work
[2] = biological target: T1, carbonic anhydrase II (CAII); test: SPR; conditions: for kon: read-out: ka
[3] = biological target: T1, carbonic anhydrase II (CAII); conditions: read-out: KD (μM) ProteOn (2); BioRad ProteOn XPR36; cited from earlier work
[4] = biological target: T1, carbonic anhydrase II (CAII); test: SPR standard injection, ADP over negative-control CAII surface; assay type: binding; conditions: standard injections, two-fold dilution series from 300 uM, 25 °C

T1 sequence (P00921 whole entry): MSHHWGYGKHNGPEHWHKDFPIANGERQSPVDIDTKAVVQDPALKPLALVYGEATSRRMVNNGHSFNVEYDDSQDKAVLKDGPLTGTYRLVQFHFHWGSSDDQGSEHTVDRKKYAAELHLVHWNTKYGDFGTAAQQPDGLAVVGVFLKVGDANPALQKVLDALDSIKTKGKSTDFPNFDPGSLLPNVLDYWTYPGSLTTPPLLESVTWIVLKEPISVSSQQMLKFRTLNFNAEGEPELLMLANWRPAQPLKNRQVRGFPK

Kd [2]	kon [2]	binding on negative-control CAII surface [4]	SMILES	Kd [1]	Kd [3]
5200 nM	7300 M⁻¹ s⁻¹	–	NCc1ccc(S(N)(=O)=O)cc1 [4-(Aminomethyl)benzenesulfonamide]	3 µM	–
613 nM	179000 M⁻¹ s⁻¹	–	NS(=O)(=O)c1cccc(S(N)(=O)=O)c1 [1,3-Benzenedisulfonamide]	0.8 µM	0.64 µM
–	–	no reliable ADP binding was observed	Nc1ncnc2c1ncn2[C@@H]1O[C@H](COP(=O)(O)OP(=O)(O)O)[C@@H](O)[C@H]1O [ADP, adenosine diphosphate]	–	–
–	–	–	CN(C)c1cccc2c(S(N)(=O)=O)cccc12 [Dansylamide]	0.4 µM	0.8 µM

SMILES	Kd [2]	kon [2]	binding on negative-control CAII surface [4]	Kd [1]	Kd [3]
NS(=O)(=O)c1ccccc1 [Benzenesulfonamide]	970 nM	135000 M⁻¹ s⁻¹	–	0.8 µM	1.1 µM
